From patent US8389508B2 (Glaxo Group Limited, priority 2010, dated 2013)
Structures can show the parent of a compound that is named as a salt.

The compounds below were run against T1, human Endothelial Differentiation Gene 1 (EDG1), S1P1 receptor (Homo sapiens, UniProt P21453) (assay: S1P1 Assay (Tango EDG1-bla/U2OS beta-lactamase reporter, agonist dose response)). Conditions: EDG1-bla/U2OS cells, blue/green emission ratio, 10 point dose response, free base or salt form; read-out: pEC50 (S1P1 assay) (converted).
T1 construct: TEV protease site; Gal4-VP16 transcription factor; expressed in transfected cells; host or cells: EDG1-bla/U2OS (Tango GPCR-bla U2OS parental cell line)
T1 sequence (P21453 whole entry, the tested form may be a part): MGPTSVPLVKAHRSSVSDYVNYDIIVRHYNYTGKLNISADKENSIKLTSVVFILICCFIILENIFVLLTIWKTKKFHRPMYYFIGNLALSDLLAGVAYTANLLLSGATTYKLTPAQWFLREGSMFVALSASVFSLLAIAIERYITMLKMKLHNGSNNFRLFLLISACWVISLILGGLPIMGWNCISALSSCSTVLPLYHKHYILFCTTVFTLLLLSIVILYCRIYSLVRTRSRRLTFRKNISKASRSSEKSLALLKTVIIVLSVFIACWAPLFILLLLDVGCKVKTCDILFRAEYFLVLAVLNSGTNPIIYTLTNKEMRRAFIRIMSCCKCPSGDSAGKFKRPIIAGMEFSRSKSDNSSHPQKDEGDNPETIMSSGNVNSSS
Type: cell-based
Method: Recombinant EDG1-bla/U2OS cells (contain the human Endothelial Differentiation Gene 1 (EDG1) linked to a TEV protease site and a Gal4-VP16 transcription factor stably integrated into the Tango GPCR-bla U2OS parental cell line) were harvested from growth medium and passaged into assay medium (Invitrogen Freestyle Expression Medium). The cells were starved for 24 hours at 37° C., 5% CO2, harvested and resuspended in assay medium at a density of ˜200,000 cells/ml. All test compounds were dissolved in DMSO at a concentration of 10 mM and were prepared in 100% DMSO to provide 10 point dose response curves. Test compounds in the free base or in a salt form were prepared by Velocity11 Bravo automation (Agilent) were added to wells in columns 2-11 and 13-22; DMSO was added to wells in columns 12 and 23 as unstimulated controls and assay medium was added to wells in columns 1 and 24 as cell-free controls. An S1P1 agonist was added to wells in row 2, columns 2-11 as stimulated controls and test compounds were added to wells in row 2, columns 13-22 and rows 3-15, columns 2-11/13-22 (row 1 and 16 were empty and not used). Compounds in solution were added to the assay plate (Greiner 781090) using an Echo (Labcyte) dose-response program (50 nl/well). The unstimulated and cell-free controls were loaded with 50 nl/well pure DMSO to ensure that the DMSO concentration was constant across the plate for all assays. 50 μl of the cell suspension was added to each well in columns 2-23 of the plate (˜10,000 cells per well). 50 μl of assay medium was added to each well in the cell-free controls (columns 1 and 24). The cells were incubated overnight at 37° C./5% CO2.
(§1) 10 μl of 6× substrate mixture (LiveBLAzer™-FRET B/G substrate (CCF4-AM) Cat # K1096 from Invitrogen, Inc.) was added to each well using Bravo automation and the plates incubated at room temperature for 2 h in the dark. The plate was finally read on EnVision using one excitation channel (409 nm) and two emission channels (460 nm and 530 nm).
(§2) The blue/green emission ratio (460 nm/530 nm) was calculated for each well, by dividing the background-subtracted Blue emission values by the background-subtracted Green emission values. The dose response curve is based on sigmoidal dose-response model. All ratio data was normalized based upon the maximum emission ratio of positive control and minimum emission ratio of negative control (DMSO) on each plate. The intrinsic activity (IA) of each compound is defined as relative response normalised to a reference compound, whose maximum response is defined as 100% after curve fitting.

CCc1c(CN2CC(C(=O)O)C2)cccc1-c1nnc(-c2ccc(OC(C)C)c(C(F)(F)F)c2)s1 [Example 2, 1-[(2-ethyl-3-{5-[4-[(1-methylethyl)oxy]-3-(trifluoromethyl)phenyl]-1,3,4-thiadiazol-2-yl}phenyl)methyl]-3-azetidinecarboxylic acid] and CCc1c(CN2CC(C(=O)O)C2)cccc1-c1nsc(-c2ccc(OC(C)C)c(C(F)(F)F)c2)n1 [Example 19, 1-[(2-ethyl-3-{5-[4-[(1-methylethyl)oxy]-3-(trifluoromethyl)phenyl]-1,2,4-thiadiazol-3-yl}phenyl)methyl]-3-azetidinecarboxylic acid] cannot be ordered by EC50: < 1 nM for the first, < 1 nM for the second.

CCc1c(CCN2CC(C(=O)O)C2)cccc1-c1nnc(-c2ccc(OC(C)C)c(Cl)c2)s1 [Example 6, 1-{2-[3-(5-{3-chloro-4-[(1-methylethyl)oxy]phenyl}-1,3,4-thiadiazol-2-yl)-2-ethylphenyl]ethyl}-3-azetidinecarboxylic acid trifluoroacetate] and CCc1c(CCN2CC(C(=O)O)C2)cccc1-c1nsc(-c2ccc(OC(C)C)c(Cl)c2)n1 [Example 23, 1-{2-[3-(5-{3-chloro-4-[(1-methylethyl)oxy]phenyl}-1,2,4-thiadiazol-3-yl)-2-ethylphenyl]ethyl}-3-azetidinecarboxylic acid trifluoroacetate] cannot be ordered by EC50: < 1 nM for the first, < 1 nM for the second.

CCc1c(CCN2CCC(C(=O)O)CC2)cccc1-c1nsc(-c2ccc(OC(C)C)c(C(F)(F)F)c2)n1 [Example 21, 1-[2-(2-ethyl-3-{5-[4-[(1-methylethyl)oxy]-3-(trifluoromethyl)phenyl]-1,2,4-thiadiazol-3-yl}phenyl)ethyl]-4-piperidinecarboxylic acid] and CCc1c(CCN2CC(C(=O)O)C2)cccc1-c1nsc(-c2ccc(OC(C)C)c(C(F)(F)F)c2)n1 [Example 22, 1-[2-(2-ethyl-3-{5-[4-[(1-methylethyl)oxy]-3-(trifluoromethyl)phenyl]-1,2,4-thiadiazol-3-yl}phenyl)ethyl]-3-azetidinecarboxylic acid] cannot be ordered by EC50: < 1 nM for the first, < 1 nM for the second.

CCc1c(CCN2CCC(C(=O)O)CC2)cccc1-c1nsc(-c2ccc(OC(C)C)c(Cl)c2)n1 [Example 24, 1-{2-[3-(5-{3-chloro-4-[(1-methylethyl)oxy]phenyl}-1,2,4-thiadiazol-3-yl)-2-ethylphenyl]ethyl}-4-piperidinecarboxylic acid trifluoroacetate] and CCc1c(CCN2CCC(C(=O)O)CC2)cccc1-c1cnc(-c2ccc(OC(C)C)c(Cl)c2)s1 [Example 40, 1-{2-[3-(2-{3-chloro-4-[(1-methylethyl)oxy]phenyl}-1,3-thiazol-5-yl)-2-ethylphenyl]ethyl}-4-piperidinecarboxylic acid trifluoroacetate] cannot be ordered by EC50: < 1 nM for the first, < 1 nM for the second.

CCc1c(CN2CC(C(=O)O)C2)cccc1-c1nsc(-c2ccc(OC(C)C)c(Cl)c2)n1 [Example 25, 1-{[3-(5-{3-chloro-4-[(1-methylethyl)oxy]phenyl}-1,2,4-thiadiazol-3-yl)-2-ethylphenyl]methyl}-3-azetidinecarboxylic acid trifluoroacetate] and CCc1c(CN2CC(C(=O)O)C2)cccc1-c1nsc(-c2ccc(CC(C)C)c(C#N)c2)n1 [Example 27, 1-[(3-{5-[3-cyano-4-(2-methylpropyl)phenyl]-1,2,4-thiadiazol-3-yl}-2-ethylphenyl)methyl]-3-azetidinecarboxylic acid trifluoroacetate] cannot be ordered by EC50: ≤ 10 nM for the first, ≤ 10 nM for the second.

CCc1c(CCN2CCC(C(=O)O)CC2)cccc1-c1nsc(-c2ccc(CC(C)C)c(C#N)c2)n1 [Example 29, 1-[2-(3-{5-[3-cyano-4-(2-methylpropyl)phenyl]-1,2,4-thiadiazol-3-yl}-2-ethylphenyl)ethyl]-4-piperidinecarboxylic acid trifluoroacetate] and CCc1c(CN2CCC(C(=O)O)CC2)cccc1-c1cnc(-c2ccc(OC(C)C)c(C#N)c2)s1 [Example 35, 1-{[3-(2-{3-cyano-4-[(1-methylethyl)oxy]phenyl}-1,3-thiazol-5-yl)-2-ethylphenyl]methyl}-4-piperidinecarboxylic acid trifluoroacetate] cannot be ordered by EC50: < 1 nM for the first, ≤ 10 nM for the second.

In the case of CCc1c(CCN2CCC(C(=O)O)C2)cccc1-c1cnc(-c2ccc(OC(C)C)c(C#N)c2)s1 (stereo not drawn) [Example 90], the EC50 is reported as < 1 nM.

The compounds below were run against T2, human Endothelial Differentiation G-protein Coupled Receptor 3 (EDG3), S1P3 receptor (Homo sapiens, UniProt Q99500) (assay: S1P3 Assay (GeneBLAzer EDG3-Ga15-NFAT-bla HEK 293T beta-lactamase reporter, agonist dose response)). Conditions: EDG3-Ga15-NFAT-bla HEK 293T cells, blue/green emission ratio, 10 point dose response, free base or salt form; read-out: pEC50 (S1P3 assay) (converted).
T2 construct: expressed in transfected cells; host or cells: GeneBLAzer EDG3-Ga15-NFAT-bla HEK 293T
T2 sequence (Q99500 whole entry): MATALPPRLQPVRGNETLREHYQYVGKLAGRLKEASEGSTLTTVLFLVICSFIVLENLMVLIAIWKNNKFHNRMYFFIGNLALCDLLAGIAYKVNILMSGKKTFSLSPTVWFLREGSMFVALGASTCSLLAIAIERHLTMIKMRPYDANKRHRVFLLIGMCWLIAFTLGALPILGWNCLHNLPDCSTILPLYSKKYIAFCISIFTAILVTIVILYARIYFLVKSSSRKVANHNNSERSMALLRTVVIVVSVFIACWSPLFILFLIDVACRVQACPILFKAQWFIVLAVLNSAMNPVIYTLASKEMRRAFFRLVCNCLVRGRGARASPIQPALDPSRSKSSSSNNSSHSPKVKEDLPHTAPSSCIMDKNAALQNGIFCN
Type: cell-based
Method: GeneBLAzer EDG3-Ga15-NFAT-bla HEK 293T cells (contain the human Endothelial Differentiation G-protein Coupled Receptor 3 (EDG3) and a beta-lactamase reporter gene under control of a NFAT response element and a promiscuous G Protein, Ga15, stably integrated into the GeneBLAzer Ga15-NFAT-bla HEK 293T cell line) were harvested from growth medium and suspended in assay medium (90% DMEM, 10% Charcoal-stripped FBS, 0.1 mM NEAA, 25 mM HEPES (pH 7.3), 100 U/ml penicillin, 100 μg/ml streptomycin) at a density of […]. All test compounds were dissolved in DMSO at a concentration of 10 mM and were prepared in 100% DMSO to provide 10 point dose response curves. Test compounds in the free base or in a salt form were prepared by Velocity 11 Bravo automation (Agilent) were added to wells in columns 2-11 and 13-22; DMSO was added to wells in columns 12 and 23 as unstimulated controls and assay medium was added to wells in columns 1 and 24 as cell-free controls. An S1P3 agonist was added to wells in row 2, columns 2-11 as stimulated controls and test compounds were added to wells in row 2, columns 13-22 and rows 3-15, columns 2-11/13-22 (row 1 and 16 were empty and not used). Compounds in solution were added to the assay plate (Greiner 781090) using an Echo (Labcyte) dose-response program (50 nl/well). The unstimulated and cell-free controls were loaded with 50 nl/well pure DMSO to ensure that the DMSO concentration was constant across the plate for all assays.
50 μl of the cell suspension was added to each well in columns 2-23 of the plate (˜10,000 cells per well). 50 μl of assay medium was added to each well in the cell-free controls (columns 1 and 24). The cells were incubated overnight at 37° C./5% CO2.
as §1, §2

CCc1c(CN2CCC(C(=O)O)CC2)cccc1-c1nnc(-c2ccc(OC(C)C)c(Cl)c2)s1 [Example 3, 1-{[3-(5-{3-chloro-4-[(1-methylethyl)oxy]phenyl}-1,3,4-thiadiazol-2-yl)-2-ethylphenyl]methyl}-4-piperidinecarboxylic acid trifluoroacetate] and CCc1c(CN2CCC(C(=O)O)CC2)cccc1-c1nsc(-c2ccc(OC(C)C)c(C#N)c2)n1 [Example 16, 1-{[3-(5-{3-cyano-4-[(1-methylethyl)oxy]phenyl}-1,2,4-thiadiazol-3-yl)-2-ethylphenyl]methyl}-4-piperidinecarboxylic acid trifluoroacetate] cannot be ordered by EC50: > 3160 nM for the first, > 10000 nM for the second.

CCc1c(CN2CCC(CC(=O)O)CC2)cccc1-c1nsc(-c2ccc(OC(C)C)c(C(F)(F)F)c2)n1 [Example 20, {1-[(2-ethyl-3-{5-[4-[(1-methylethyl)oxy]-3-(trifluoromethyl)phenyl]-1,2,4-thiadiazol-3-yl}phenyl)methyl]-4-piperidinyl}acetic acid] and CCc1c(CCN2CCC(C(=O)O)C2)cccc1-c1nsc(-c2ccc(OC(C)C)c(Cl)c2)n1 (stereo not drawn) [Example 67] cannot be ordered by EC50: > 10000 nM for the first, > 3160 nM for the second.

CCc1c(CN2CCC(C(=O)O)CC2)cccc1-c1nsc(-c2ccc(CC(C)C)c(C#N)c2)n1 [Example 28, 1-[(3-{5-[3-cyano-4-(2-methylpropyl)phenyl]-1,2,4-thiadiazol-3-yl}-2-ethylphenyl)methyl]-4-piperidinecarboxylic acid] and CCc1c(CCN2CC[C@H](C(=O)O)C2)cccc1-c1nsc(-c2ccc(OC(C)C)c(Cl)c2)n1 [Example 68] cannot be ordered by EC50: > 10000 nM for the first, > 3160 nM for the second.

CCc1c(CCN2CCC[C@H](C(=O)O)C2)cccc1-c1nsc(-c2ccc(OC(C)C)c(Cl)c2)n1 [Example 71] and CCc1c(CN2CCCC(C(=O)O)C2)cccc1-c1cnc(-c2ccc(OC(C)C)c(C#N)c2)s1 (stereo not drawn) [Example 86] cannot be ordered by EC50: > 3160 nM for the first, > 10000 nM for the second.

CCc1c(CN2CCC[C@H]2C(=O)O)cccc1-c1cnc(-c2ccc(OC(C)C)c(C#N)c2)s1 [Example 81, 1-{[3-(2-{3-cyano-4-[(1-methylethyl)oxy]phenyl}-1,3-thiazol-5-yl)-2-ethylphenyl]methyl}-L-proline trifluoroacetate] and CCc1c(CCN2CCC[C@@H]2C(=O)O)cccc1-c1cnc(-c2ccc(OC(C)C)c(C#N)c2)s1 [Example 89] cannot be ordered by EC50: > 10000 nM for the first, > 10000 nM for the second.

In the case of CCc1c(CN2C[C@H](O)C[C@H]2C(=O)O)cccc1-c1cnc(-c2ccc(OC(C)C)c(C#N)c2)s1 [Example 85], the EC50 is reported as > 10000 nM.
